These results are taken from ChEMBL document CHEMBL1150872, “Four new bioactive lobane diterpenes of the soft coral Lobophytum pauciflorum from Mindoro, Philippines” (J Nat Prod, 1998).

Values after ≈ are worked out from the molar mass of the structure shown. Active and inactive are the calls of the source. The rule behind the calls is not given here.

The subject of one data set is Staphylococcus aureus. Put plainly: Antibacterial activity against Staphylococcus aureus […] after 24 hrs by agar diffusion assay. In kind it is functional, organism-based. In general terms: Agar diffusion results depend on both activity and mobility in agar.
Data set [1] concerns Cladosporium cucumerinum. In words: Antifungal activity against Cladosporium cucumerinum at 0.1 umol after 2 days. It counts as functional.
The subject of a further data set is Escherichia coli. Put plainly: Antibacterial activity against Escherichia coli ATCC 25922 after 24 hrs by agar diffusion assay. It counts as functional, organism-based.
A further data set concerns Saccharomyces cerevisiae. In words: Antifungal activity against Saccharomyces cerevisiae after 2 days. In kind it is functional.
Data set [2] has as its system Cladosporium cucumerinum. Put plainly: Antifungal activity against Cladosporium cucumerinum at 0.2 umol after 2 days. In kind it is functional.
The test system of data set [3] is Cladosporium cucumerinum. In words: Antifungal activity against Cladosporium cucumerinum at 0.4 umol after 2 days. It counts as functional.
In another data set the test system is Bacillus subtilis. Put plainly: Antibacterial activity against Bacillus subtilis 168 after 24 hrs by agar diffusion assay. It counts as functional, subsp. subtilis str. 168.
In data set [4] the test system is Cladosporium cucumerinum. Put plainly: Antifungal activity against Cladosporium cucumerinum at 0.8 umol after 2 days. In kind it is functional.
A short description of data set [5]: Toxicity in Artemia salina after 48 hrs. In kind it is organism-based. The conditions noted are these: in vivo.

With `C=C[C@@]1(C)CC[C@H](C2=CC[C@H](C(C)(C)O)OC2)C[C@@H]1C(=C)C` [LOBATRIENE], the outcome in the data set with Staphylococcus aureus and with Escherichia coli was inactive. Moreover, the “inhibition zone (IZ)” value amounted to 5 mm with Cladosporium cucumerinum [1]; 7 mm in the data set with Saccharomyces cerevisiae; 10 mm in the data set on Cladosporium cucumerinum [2]; 14 mm in the data set with Cladosporium cucumerinum [3]; 8 mm with Bacillus subtilis; 15 mm in the data set on Cladosporium cucumerinum [4]. In data set [5], the LC50 – broadly, the concentration that kills 50% of the test population – at 48 h was 19.8 µg/mL (≈ 65 µM).

Consider `C=C[C@@]1(C)CC[C@H](C2=CCC(O)C(C)(C)OC2)C[C@@H]1C(=C)C` (stereo partly drawn), for which the “inhibition zone (IZ)” value is 5 mm in the data set on Cladosporium cucumerinum [1], 10 mm in the data set on Cladosporium cucumerinum [2], 14 mm with Cladosporium cucumerinum [3] and 17 mm in the data set with Cladosporium cucumerinum [4].

Consider `C=C[C@@]1(C)CC[C@H](C2=CC[C@H](C(C)(C)O)OC2=O)C[C@@H]1C(=C)C` [LOBATRIENOLIDE], for which the “inhibition zone (IZ)” value in the data set with Cladosporium cucumerinum [1] turned out to be 6 mm; in the data set on Cladosporium cucumerinum [2], 9 mm; in the data set on Cladosporium cucumerinum [3], 13 mm; in the data set on Cladosporium cucumerinum [4], 15 mm.

In the case of `COC1=C(C)C(=O)c2cc(=O)n(C)c(C)c2C1=O` [MIMOSAMYCIN], the “inhibition zone (IZ)” value in the data set on Cladosporium cucumerinum [2] was 15 mm; in the data set with Cladosporium cucumerinum [3] it was 18 mm.

Consider `C=C[C@@]1(C)CC[C@H](/C(=C/C[C@@H](OC(C)=O)C(C)(C)O)COC(C)=O)C[C@@H]1C(=C)C`, for which the “inhibition zone (IZ)” value is 5 mm with Cladosporium cucumerinum [1], 10 mm in the data set with Cladosporium cucumerinum [2], 13 mm in the data set on Cladosporium cucumerinum [3] and 15 mm in the data set with Cladosporium cucumerinum [4]. The same compound yielded an LC50 at 48 h in data set [5] of 60.4 µg/mL (≈ 149 µM).

Turning to `C=C[C@@]1(C)CC[C@H](/C(C)=C/C[C@H]2OC2(C)C)C[C@@H]1C(=C)C`, the “inhibition zone (IZ)” value in the data set with Cladosporium cucumerinum [1] is given as 0 mm; in the data set on Cladosporium cucumerinum [2], 0 mm; in the data set with Cladosporium cucumerinum [3], 0 mm; in the data set with Cladosporium cucumerinum [4], 5 mm. Moreover, the median lethal concentration (LC50) at 48 h in data set [5] came out at 0.64 µg/mL (≈ 2.22 µM).

Consider `C=C[C@@]1(C)CC[C@H](/C(C)=C/C[C@@H](O)C(C)(C)O)C[C@@H]1C(=C)C`, for which the “inhibition zone (IZ)” value in the data set on Cladosporium cucumerinum [1] is reported as 6 mm; with Cladosporium cucumerinum [2] it was 9 mm; with Cladosporium cucumerinum [3], 14 mm; in the data set with Cladosporium cucumerinum [4] it was 17 mm. In data set [5], this compound came in with an LC50 at 48 h of 10.5 µg/mL (≈ 34.3 µM).

As to `C=C[C@@]1(C)CC[C@H](/C(C)=C/C[C@@H](OC(C)=O)C(C)(C)O)C[C@@H]1C(=C)C`, the “inhibition zone (IZ)” value amounted to 2 mm in the data set with Cladosporium cucumerinum [1], 5 mm in the data set with Cladosporium cucumerinum [2], 9 mm with Cladosporium cucumerinum [3] and 13 mm in the data set with Cladosporium cucumerinum [4]. Moreover, in data set [5], the LC50 at 48 h was determined as 19.1 µg/mL (≈ 54.8 µM).

Regarding `C=C[C@@]1(C)CC[C@H](/C(C)=C/C=C/C(C)(C)O)C[C@@H]1C(=C)C` [FUSCOL], the “inhibition zone (IZ)” value with Cladosporium cucumerinum [1] worked out at 0 mm; in the data set with Cladosporium cucumerinum [2] it was 0 mm; in the data set with Cladosporium cucumerinum [3] it was 0 mm; with Cladosporium cucumerinum [4] it was 2 mm. In addition, the median lethal concentration (LC50) at 48 h in [5] was 4.18 µg/mL (≈ 14.5 µM).

With `C=C[C@@]1(C)CC[C@H](C2=CC[C@H](C(C)(C)OC(C)=O)OC2)C[C@@H]1C(=C)C`, the “inhibition zone (IZ)” value in the data set with Cladosporium cucumerinum [1] came out at 6 mm; in the data set with Cladosporium cucumerinum [2], 8 mm; in the data set with Cladosporium cucumerinum [3], 10 mm. The compound further yielded an LC50 at 48 h in data set [5] of 34 µg/mL (≈ 98 µM).

Turning to `C=C[C@@]1(C)CC[C@H](/C(=C/C[C@@H](O)C(C)(C)O)COC(C)=O)C[C@@H]1C(=C)C`, the “inhibition zone (IZ)” value with Cladosporium cucumerinum [1] worked out at 5 mm; with Cladosporium cucumerinum [2] it was 10 mm; in the data set on Cladosporium cucumerinum [3] it was 20 mm; in the data set with Cladosporium cucumerinum [4], 30 mm. The LC50 at 48 h in [5] was 59 µg/mL (≈ 162 µM).
